Assay [1] concerns Pseudomonas corrugata.
Assay [2] concerns Clavibacter michiganensis. Kind of assay: In-vitro inhibition assay (MIC and LC), Example 3. Type of assay: cell-based. The procedure: (§1) In-vitro inhibition assays were performed in sterile flat-bottom 96-well plates (Greiner bio-one, Frickenhausen). Antimicrobial peptides were dissolved in 0.01% acetic acid containing 0.2% BSA (500 μg/ml), filter sterilized and stored at −20° C. For inhibition assays dilutions of peptides ranging from 5 to 200 μg/ml were prepared and 10 μl (antibacterial assay) or 20 (antifungal assay) of each concentration was loaded per well.
(§2) Bacteria colonies from overnight agar plate cultures were resuspended into 5 ml LB-medium or HPG-medium (OD600 nm=0.08-0.1) and diluted into LB-medium/HPG-medium (1:100). 90 μl of this suspension containing about 10^5-10^6 CFU/ml of tested bacteria were added to each well resulting in final peptide concentrations of 0, 0.5, 1, 2, 5, 10, and 20 μg/ml. […] The lowest concentration, in which there is no observable growth (>90% inhibition) is referred to as minimal inhibitory concentration (MIC). […] For each peptide concentration two identical inhibition assays were performed.

For assay [3], the system named is Xanthomonas vesicatoria. Kind of assay: In-vitro inhibition assay (MIC and LC), Example 3. Type of assay: cell-based. How it is done: as §1, §2
Assay [4] deals with Pectobacterium carotovorum sub. carotovorum.
In a further assay the test system is Cladosporium herbarum. Kind of assay: In-vitro inhibition assay (MIC), Example 2. Type of assay: cell-based. The conditions noted are these: visual screening. How it is done:
(§3) In-vitro inhibition assays were performed in sterile flat-bottom 96-well plates (Greiner bio-one, Frickenhausen). Antimicrobial peptides were dissolved in 0.01% acetic acid containing 0.2% BSA (500 μg/ml), filter sterilized and stored at −20° C. For inhibition assays dilutions of peptides ranging from 5 to 200 μg/ml were prepared and 10 μl (antibacterial assay) or 20 μl (antifungal assay) of each concentration was loaded per well.
(§4) Spores of fungi were collected by water washes of sporulating cultures grown on 2% malt extract agar and spore concentration was determined by microscopy. The concentration of the spores was adjusted to 1.5-2×10^3 spores/ml in 2% malt extract medium and 80 μl of fungal spores were added per well. The final peptide concentrations used in the fungal inhibition assays were […]. After overnight incubation at room temperature the plate were put on a rotary shaker (300 rpm) for further two days to ensure consistantly growth. Antifungal effects of the peptides were determined by a microplate reader (Alternaria, Fusarium) at OD590 nm or by visual screening of the plates (Botrytis, Cladosporium).
(§5) The lowest peptide concentration leading to complete inhibition of bacterial growth or spore germination/mycelial growth (minimal inhibition concentration, MIC) was determined for each organism-peptide combination. For each peptide concentration two identical inhibition assays were performed.

The test system of another assay is Botrytis cinerea. Kind of assay: In-vitro inhibition assay (MIC), Example 2. Type of assay: cell-based. The conditions noted are these: visual screening. The procedure: as §3, §4, §5
The test system of another assay is Alternaria alternata. Kind of assay: In-vitro inhibition assay (MIC), Example 2. Type of assay: cell-based. Conditions: OD590 nm. The procedure: as §3, §4, §5
In assay [5] the test system is Pseudomonas syringae pv. tomato.
Assay [6] relates to Pseudomonas syringae pv. syringae.
The subject of assay [7] is Pectobacterium carotovorum. The assay is classed as cell-based. The procedure: as §1, §2
In assay [8] the test system is Pseudomonas syringae pv. syringae. Type of assay: cell-based. The procedure:
as §1, §2

For assay [9], the system named is Pseudomonas syringae pv. tomato. Type of assay: cell-based. How it is done:
as §1, §2

The subject of assay [10] is Pseudomonas corrugata. Type of assay: cell-based. The procedure:
as §1, §2

Assay [11] relates to Xanthomonas vesicatoria.
For assay [12], the system named is Clavibacter michiganensis sub. michiganensis. Conditions: overnight 25° C.
Another assay has as its system phytopathogenic fungi. Kind of assay: Antifungal inhibition assay, summary statement. The assay is classed as cell-based. Conditions: summary of Table 1. How it is done:
as §3, §4
The lowest peptide concentration leading to complete inhibition of bacterial growth or spore germination/mycelial growth (minimal inhibition concentration, MIC) was determined for each organism-peptide combination. […]

Data on four substances can be found in US20110294722A1, “ANTIMICROBIAL PEPTIDES” (priority 2008, published 2011).

Like-named read-outs stand apart in the source and are kept apart here. No end group written: not given here.

On to RKKRLKLLKRLV-NH2 [SP1], for which the “Minimal inhibition concentration (MIC) for complete inhibition of bacterial growth” value with Pseudomonas corrugata [1] is 2 µg/mL; in assay [4], more than 40 µg/mL; in assay [5], 1 µg/mL; in assay [6], 2 µg/mL; with Xanthomonas vesicatoria [11] it was 2 µg/mL; in assay [12], 1 µg/mL. In addition, the “MIC (>90% inhibition)” value in assay [2] (1-2 days at 25° C.) is 5.0/5.0 μg/ml; in the assay with Xanthomonas vesicatoria [3] (1-2 days at 25° C.) it was 0.5 µg/mL; in assay [7] it was >10/>10 μg/ml; in assay [8], 0.1 µg/mL; in [9], 10/10 μg/ml; against Pseudomonas corrugata [10] it was 0.5 µg/mL. The “LC (lethal concentration, 100% inhibition)” value was 5.0/5.0 μg/ml in assay [2] (at least 4 days of incubation); 1.0 µg/mL with Xanthomonas vesicatoria [3] (at least 4 days of incubation); >10/>10 μg/ml in [7] (Pectobacterium carotovorum, at least 4 days of incubation); 0.5 µg/mL in [8] (Pseudomonas syringae pv. syringae, at least 4 days of incubation); 10/10 μg/ml in assay [9] (Pseudomonas syringae pv. tomato, at least 4 days of incubation); 1.0 µg/mL in the assay on Pseudomonas corrugata [10] (Pseudomonas corrugata, at least 4 days of incubation). The “Minimal inhibition concentration (MIC) for complete inhibition of spore germination/mycelial growth” value with Cladosporium herbarum was 10 µg/mL; in the assay on Botrytis cinerea, more than 100 µg/mL; in the assay with Alternaria alternata, more than 100 µg/mL.
In the case of RKRFARFAKRAV-NH2 [Sp3], the “Minimal inhibition concentration (MIC) for complete inhibition of spore germination/mycelial growth” value in the assay on Cladosporium herbarum was 40 µg/mL; in the assay with Botrytis cinerea, more than 100 µg/mL; in the assay on Alternaria alternata, more than 100 µg/mL.
With RKRAARLLKRLV-NH2 [Sp2], the “Minimal inhibition concentration (MIC) for complete inhibition of spore germination/mycelial growth” value in the assay with Cladosporium herbarum was 20 µg/mL; in the assay with Botrytis cinerea, more than 100 µg/mL; in the assay with Alternaria alternata it was more than 100 µg/mL.
“SP1-D: Polypeptide SP1 (RKKRLKLLKRLV) with D-amino acids incorporated; D positions marked bold/italic in b61, not recoverable (also: D-amino acids at unstated positions)”: the “Minimal inhibition concentration (MIC) for complete inhibition of bacterial growth” value is 20 µg/mL in the assay on Pseudomonas corrugata [1] (Pseudomonas corrugata, overnight 25° C.); more than 40 µg/mL in [4] (Pectobacterium carotovorum sub. carotovorum, overnight 25° C.); 5 µg/mL in assay [5] (Pseudomonas syringae pv. tomato, overnight 25° C.); 5 µg/mL in assay [6] (Pseudomonas syringae pv. syringae, overnight 25° C.); 40 µg/mL in the assay with Xanthomonas vesicatoria [11] (Xanthomonas vesicatoria, overnight 25° C.); 40 µg/mL in assay [12]. Moreover, the “Efficacy against phytopathogenic fungi” value with phytopathogenic fungi is given as “high efficacy against phytopathogenic fungi”. In addition, the “Minimal inhibition concentration (MIC) for complete inhibition of spore germination/mycelial growth” value in the assay with Cladosporium herbarum was 20 µg/mL; in the assay with Botrytis cinerea it was more than 40 µg/mL; with Alternaria alternata it was 20 µg/mL.
